According to US11149008B2, “Sulfamide derivatives and preparation method and use thereof” (HitGen Ltd., priority 2015, dated 2021):

Experiments:
HepG2 cells = experiment: Cell growth inhibition measurement (CCK-8), HepG2; assay type: cell-based; details: Homo sapiens, HepG2, 72 h, highest EC50 measured during one or multiple operations, read-out: Inhibition activity against cancer cells, HepG2 (EC50)
From the text: (§1) A HepG2 cell strain and an HCT-116 cell strain were purchased from Shanghai Institutes for Biological Sciences; a DMEM high-sugar culture medium and an MEM culture medium were purchased from Hyclone; fetal calf serum was purchased from Gibco; trypsin was purchased from Invitrogen Shanghai; a CCK-8 kit was purchased from Beyotime Institute of Biotechnology; and, the remaining cell culture mediums and other consumables were purchased from Corning China.
(§2) HepG2 cells and HCT-116 cells in the logarithmic growth phase were digested by trypsin. After the counting of uniform cell suspension, the cell density was adjusted as 1500 cells/well by a culture medium containing 10% serum. The cells were re-inoculated to a 96-well cell culture plate, and cultured to a volume of 200 μL at 37° C. in an incubator containing 5% CO2. The cells could be tested after being cultured for 24 h.
(§3) The cells cultured for 24 h were taken out from the incubator. The culture liquid in the well plate was sucked out, and 200 μL of compound solution prepared in the culture medium containing 10% fetal calf serum was added in each well. Five parallel mediums were provided for each concentration, and a DMSO culture medium was used as negative control. The culture mediums were cultured for 72 h at 37° C. in an incubator containing 5% CO2, and CCK-8 detection was performed.
(§4) A serum-free culture medium and CCK-8 solution were prepared, and CCK-8 working solution was prepared at a ratio of 10:1 (this process should be performed in dark place).
(§5) The cells cultured for 72 h were taken out from the incubator. The culture liquid in the well plate was sucked out, and 120 μL of the CCK-8 working solution was added in each well. A well plate without cells was also added with 120 μL of the CCK-8 working solution to serve as blank control. The well plates were cultured for 1 h at 37° C. in an incubator containing 5% CO2 (this process should be performed in dark place).
(§6) The well plates were taken out from the incubator, 100 μL of solution in each well was sucked out and added in a new 96-well plate, and the absorbance was measured at 450 nm (this process should be performed in dark place).
(§7) where Tx is the absorbance of the CCK-8 after the compound acts for 72 h;
(§8) C is the absorbance of the CCK-8 after the negative control wells are cultured for 72 h; and
(§9) B is the absorbance of the CCK-8 in the blank control wells.
(§10) The test results of the compounds prepared according to the embodiments during the measurement are shown in Table 3, wherein the measured highest EC50 of the compounds during one operation or multiple operations is classified according to the following description: […]

HDAC 6 = molecular target: T1, HDAC 6 (Homo sapiens, UniProt Q9UBN7); experiment: Enzyme activity detection of histone deacetylase 6 (fluorogenic substrate deacetylation); assay type: biochemical; details: 0.35 ng/μL HDAC 6, 20 μM substrate, 30 min at 37° C.; IC50 class
T1 construct: purchased BPS Bioscience #50076
T1 sequence (Q9UBN7 1-1215): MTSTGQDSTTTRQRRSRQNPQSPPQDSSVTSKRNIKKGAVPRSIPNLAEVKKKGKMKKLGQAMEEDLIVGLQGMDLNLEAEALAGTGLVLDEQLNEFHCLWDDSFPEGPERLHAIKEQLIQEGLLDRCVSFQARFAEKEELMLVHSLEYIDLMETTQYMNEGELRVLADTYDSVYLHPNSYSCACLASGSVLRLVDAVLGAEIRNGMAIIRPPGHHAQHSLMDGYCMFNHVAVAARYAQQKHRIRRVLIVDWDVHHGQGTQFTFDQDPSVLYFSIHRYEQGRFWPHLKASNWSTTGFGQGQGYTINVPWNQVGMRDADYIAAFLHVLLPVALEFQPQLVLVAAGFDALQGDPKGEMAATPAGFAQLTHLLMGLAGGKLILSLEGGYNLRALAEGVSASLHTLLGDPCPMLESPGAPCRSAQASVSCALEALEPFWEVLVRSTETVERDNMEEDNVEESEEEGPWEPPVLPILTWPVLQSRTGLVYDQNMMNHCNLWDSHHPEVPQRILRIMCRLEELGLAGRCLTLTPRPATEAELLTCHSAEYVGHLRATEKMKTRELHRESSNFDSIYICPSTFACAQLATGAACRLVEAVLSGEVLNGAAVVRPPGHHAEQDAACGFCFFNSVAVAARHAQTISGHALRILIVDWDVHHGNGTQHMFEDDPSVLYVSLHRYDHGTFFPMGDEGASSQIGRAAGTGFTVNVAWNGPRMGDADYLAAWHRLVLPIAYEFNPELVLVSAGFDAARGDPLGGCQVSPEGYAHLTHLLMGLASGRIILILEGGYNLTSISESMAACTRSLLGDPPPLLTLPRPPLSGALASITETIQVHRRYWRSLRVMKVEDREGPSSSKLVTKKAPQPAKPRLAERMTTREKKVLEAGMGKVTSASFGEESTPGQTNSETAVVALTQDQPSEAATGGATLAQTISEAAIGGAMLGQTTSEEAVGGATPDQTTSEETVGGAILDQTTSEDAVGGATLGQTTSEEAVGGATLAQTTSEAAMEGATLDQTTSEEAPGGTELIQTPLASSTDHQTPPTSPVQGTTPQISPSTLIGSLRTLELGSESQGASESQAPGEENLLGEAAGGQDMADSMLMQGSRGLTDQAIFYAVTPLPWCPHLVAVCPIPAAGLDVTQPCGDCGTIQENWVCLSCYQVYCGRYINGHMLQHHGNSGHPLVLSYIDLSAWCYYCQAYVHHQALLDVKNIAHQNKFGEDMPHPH
From the text: (§11) During the deacetylation detection of a substrate, the HDAC inhibition activity of the compound of the present invention was detected.
A: Enzyme Activity Detection of Histone Deacetylase 6 (#50076, BPS Bioscience)
(§12) Acetyl on the substrate was removed by the HDAC 6, so that the substrate was activated, and the developing liquid added subsequently could act on the substrate to release the fluorescent group. The size of the fluorescence signal reflected the activity of the HDAC 6. The IC50 detection method for this enzyme was disclosed in Chuping Xu, Elisabetta Soragni Improved Histone Deacetylase Inhibitors as Therapeutics for the Neurdegenerative Disease Friedreich's Ataxia: A New Synthetic Route. The total reaction system (100 μL/well) contained 0.35 ng/μL of HDAC 6, 20 μM of the substrate and the compound in different concentrations. The reaction system was incubated for 30 min at 37° C., and the fluorescence signal was then measured. The inhibition effect of the compound was determined from the obtained data, a concentration response curve was obtained by using the inhibition effect and the concentration of the compound, and the value of IC50 was fitted according to a four-parameter model.
(§13) The activities of the compounds prepared in the embodiments against the histone deacetylases 1, 3 and 6 (i.e., HDAC 1, HDAC 3 and HDAC 6) were detected by the above methods, and the test results were shown in Table 2, where the measurements of IC50 of the compounds were classified according to the following description: […]

HDAC 3 = molecular target: T2, HDAC 3 (Homo sapiens, UniProt O15379); experiment: Enzyme activity detection of histone deacetylase 3 (fluorogenic substrate deacetylation); assay type: biochemical; details: 0.16 ng/μL HDAC 3, 10 μM substrate; IC50 class
T2 construct: purchased BPS Bioscience #50003
T2 sequence (O15379 whole entry): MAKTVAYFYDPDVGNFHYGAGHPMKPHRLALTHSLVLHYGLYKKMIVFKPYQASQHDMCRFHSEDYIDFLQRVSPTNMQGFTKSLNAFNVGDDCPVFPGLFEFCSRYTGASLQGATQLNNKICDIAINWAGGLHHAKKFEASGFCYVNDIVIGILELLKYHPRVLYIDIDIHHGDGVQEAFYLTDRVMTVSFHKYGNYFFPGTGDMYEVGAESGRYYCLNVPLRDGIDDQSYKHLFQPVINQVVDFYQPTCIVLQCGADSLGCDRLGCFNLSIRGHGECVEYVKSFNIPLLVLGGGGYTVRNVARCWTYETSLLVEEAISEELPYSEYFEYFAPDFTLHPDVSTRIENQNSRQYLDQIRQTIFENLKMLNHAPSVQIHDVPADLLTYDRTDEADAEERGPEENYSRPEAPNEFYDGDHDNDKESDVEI
T2 sequence (Q9Y618 395-489 partner limits assumed): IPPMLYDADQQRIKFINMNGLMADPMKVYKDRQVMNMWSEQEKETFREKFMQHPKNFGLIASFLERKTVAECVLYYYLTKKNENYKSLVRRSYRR
From the text: as §11
B: Enzyme Activity Detection of Histone Deacetylase 3 (#50003, BPS Bioscience)
as §12, with “3,” for “6,”, “3.” for “6.”, “0.16” for “0.35”, “3, 10” for “6, 20”, “The” for “The reaction system was incubated for 30 min at 37° C., and the”, “detected online at Ex/Em=360/460.” for “then measured.”
as §13

HDAC 1 = HDAC 1 (Homo sapiens, UniProt Q13547); experiment: Enzyme activity detection of histone deacetylase 1 (fluorogenic substrate deacetylation); assay type: biochemical; details: 0.28 ng/μL HDAC 1, 10 μM substrate; IC50 class
HDAC 1, sequence (Q13547 whole entry, species assumed): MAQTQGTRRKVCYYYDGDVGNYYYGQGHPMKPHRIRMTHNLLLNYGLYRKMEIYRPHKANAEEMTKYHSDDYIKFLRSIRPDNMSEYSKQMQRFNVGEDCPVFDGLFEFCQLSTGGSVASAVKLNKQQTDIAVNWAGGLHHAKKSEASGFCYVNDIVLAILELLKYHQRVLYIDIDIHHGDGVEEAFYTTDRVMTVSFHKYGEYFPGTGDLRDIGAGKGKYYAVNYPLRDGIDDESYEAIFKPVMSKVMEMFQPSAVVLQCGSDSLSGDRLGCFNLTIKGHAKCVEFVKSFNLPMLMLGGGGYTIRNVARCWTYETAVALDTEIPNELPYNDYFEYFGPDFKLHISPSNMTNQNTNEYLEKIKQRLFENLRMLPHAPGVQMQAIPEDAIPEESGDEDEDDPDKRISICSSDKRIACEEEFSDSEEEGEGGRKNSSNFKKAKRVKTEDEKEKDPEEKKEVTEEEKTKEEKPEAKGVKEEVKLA
From the text: as §11
C: Enzyme Activity Detection of Histone Deacetylase 1
as §12, with “1,” for “6,”, “1.” for “6.”, “0.28” for “0.35”, “1, 10” for “6, 20”, “The” for “The reaction system was incubated for 30 min at 37° C., and the”, “detected online at Ex/Em=360/460.” for “then measured.”
as §13

HCT-116 cells = experiment: Cell growth inhibition measurement (CCK-8), HCT-116; assay type: cell-based; details: Homo sapiens, HCT-116, 72 h, highest EC50 measured during one or multiple operations, read-out: Inhibition activity against cancer cells, HCT-116 (EC50)
From the text: as §1, §2, §3, §4, §5, §6, §7, §8, §9, §10

EC50 (HepG2 cells) [nM]	IC50 (HDAC 6) [nM]	IC50 (HDAC 3) [nM]	IC50 (HDAC 1) [nM]	EC50 (HCT-116 cells) [nM]	Structure (SMILES)
> 100	< 100	100 to 500	–	–	O=C(NO)C1=CCN(S(=O)(=O)c2ccc(-c3cnn(C4CCNCC4)c3)cc2)CC1 [Compound 1, N-hydroxyl-1-((4-(1-(piperidine-4-yl)-1H-pyrazol-4-yl)phenyl)sulfonyl)-1,2,3,6-tetrahydropyridine-4-formamide]
< 100	< 100	100 to 500	–	–	O=C(NO)C1=CCN(S(=O)(=O)c2ccc(-c3ccc(O)cc3)cc2)CC1 [Compound 2, N-hydroxyl-1-((4′-hydroxyl-[1,1′-biphenyl]-4-yl)sulfonyl)-1,2,3,6-tetrahydropyridine-4-formamide]
> 100	< 100	100 to 500	100 to 500	–	CN1CCN(c2ccc(-c3ccc(S(=O)(=O)N4CCC=C(C(=O)NO)CC4)cc3)cc2)CC1 [Compound 44, N-hydroxyl-1-((4′-(4-methylpiperazine-1-yl)-[1,1′-biphenyl]-4-yl)sulfonyl)-2,3,6,7-tetrahydro-1H-aza-4-formamide]
< 100	< 100	–	< 100	< 100	O=C(NO)C1=CCN(S(=O)(=O)c2ccc(-c3ccc(CN4CCCCC4)cc3)cc2)CC1 [Compound 19, N-hydroxyl-1-((4′-(piperidine-1-ylmethyl)-[1,1′-biphenyl]-4-yl)sulfonyl)-1,2,3,6-tetrahydropyridine-4-formamide]
